Source: patent US8633199B2, “Medicine consisting of concomitant use or combination of DPP-IV inhibitor and other diabetic medicine” (Sanwa Kagaku Kenkyusho Co., Ltd., priority 2008, dated 2014)

What was measured:
Format in all cases: in vivo, rat
ZDF rats = assay: Oral corn starch loading test, plasma active GLP-1, glucose and insulin; conditions: oral compound (I) 3 mg/kg, Metformin 300 mg/kg, 15 min before corn starch loading, AUC 0-180 min; for increase of the concentration of the active GLP-1 in the plasma (AUC of change): FIG. 5; for plasma glucose elevation (AUC): FIG. 6
Procedure: An operation to insert a polyurethane catheter was performed on the right jugular vein of a ZDF rat (13 weeks old, male, Charles River Laboratories Japan, Inc.), and experiments were performed in the following four groups. (1) Control group: purified water was administered at a ratio of 5 ml/kg (2) Compound (I) group: the compound (I) dissolved in purified water was administered at a dose of 3 mg/kg (5 ml/kg) […] Metformin dissolved in purified water was administered at a dose of 300 mg/kg (5 ml/kg) (4) Concomitant use group: the compound (I) and Metformin dissolved in purified water were administered at respective doses of 3 mg/kg (5 ml/kg) and 300 mg/kg (5 ml/kg) […] Blood was collected from the catheter immediately before administration and after administration of corn starch, and centrifuged at 4° C., 3000 rpm for 10 minutes to obtain plasma. The concentration of the active GLP-1 in the obtained blood plasma was measured by ELISA (GLUCAGON-LIKE PEPTIDE-1 (ACTIVE) ELISA KIT, LINCO Research, Inc., US), the plasma glucose and insulin concentrations of the obtained plasma was measured by Glucose C2 (Wako Pure Chemical Industries, Ltd., Japan) and ELISA (Rat Insulin ELISA Kit, Shibayagi, Co., Ltd., Japan), respectively. Based on the measured concentration of the active GLP-1 in the plasma, the amount of change relative to the concentration immediately before starch administration was obtained. Based on the amount of change relative to the plasma active GLP-1, glucose and insulin concentrations, AUC from immediately before the administration of starch to 180 minutes after the administration was calculated. The result of the plasma active GLP-1 concentration is shown in FIG. 5, the result of the plasma glucose concentration is shown in FIG. 6 and the result of the plasma insulin concentration is shown in FIG. 7.

Wistar rats = assay: Oral corn starch loading test, plasma GIP (ELISA); conditions: oral compound (I) 3 mg/kg, Metformin 300 mg/kg, 30 min before corn starch loading, AUC 0-180 min, FIG. 8
Procedure: Effects of compound (I) alone, Metformin alone and concomitant use of compound (I) and Metformin on concentration of GIP in plasma during oral corn starch loading test in Slc: Wistar/ST rats (hereinafter abbreviated as Wistar rats) An operation to insert a polyurethane catheter was performed on the right jugular vein of a Wistar rat (9 weeks old, male, Japan SLC, Inc.), and experiments were performed in the following four groups. (1) Control group: purified water was administered at a ratio of 5 ml/kg (2) Compound (I) group: the compound (I) dissolved in purified water was administered at a dose of 3 mg/kg (5 ml/kg) […] Metformin dissolved in purified water was administered at a dose of 300 mg/kg (5 ml/kg) (4) Concomitant use group: the compound (I) and Metformin dissolved in purified water were administered at respective doses of 3 mg/kg (5 ml/kg) and 300 mg/kg (5 ml/kg) […] Blood was collected from the catheter immediately before administration and after administration of corn starch, and centrifuged at 4° C., 3000 rpm for 10 minutes to obtain plasma. The concentration of the GIP in the obtained plasma was measured by ELISA (RAT/MOUSE GIP (TOTAL) ELISA KIT, LINCO Research, Inc., US). Based on the measured GIP concentration, AUC from immediately before the administration of starch to 180 minutes after the administration was calculated.

Zucker fatty rats [1] = assay: Oral sucrose loading test, plasma active GLP-1 (ELISA); conditions: oral 3 mg/kg each drug 15 min before sucrose loading, AUC 0-120 min, FIG. 1
Procedure: Effects of compound (I) alone, Miglitol alone and concomitant use of compound (I) and Miglitol on plasma concentration of active GLP-1 during oral sucrose loading test in Slc: Zucker-fa/fa rats (hereinafter abbreviated as Zucker fatty rats)
An operation to insert a polyurethane catheter was performed on the right jugular vein of a Zucker fatty rat (9 weeks old, male, Japan SLC, Inc.) which is an obesity-insulin resistant model, and experiments were performed in the following four groups.
(§1) (1) Control group: purified water was administered at a ratio of 5 ml/kg
(§2) (2) Compound (I) group: the compound (I) dissolved in purified water was administered at a dose of 3 mg/kg (5 ml/kg)
(§3) (3) Miglitol group: Miglitol dissolved in purified water was administered at a dose of 3 mg/kg (5 ml/kg)
(§4) (4) Concomitant use group: the compound (I) and Miglitol dissolved in purified water were administered at respective dose of 3 mg/kg (5 ml/kg)
Purified water, the compound (I) and Miglitol were orally administered respectively to the Zucker fatty rats fasted overnight in each group as described in (1) to (4), and after 15 minutes, a 30% aqueous sucrose solution was administered at a ratio of 10 ml/kg. […] The concentration of an active GLP-1 in the obtained plasma was measured by an enzyme immunoassay (hereinafter abbreviated as ELISA) (GLUCAGON-LIKE PEPTIDE-1 (ACTIVE) ELISA KIT, LINCO Research, Inc., US). […]

Zucker fatty rats [2] = assay: Liquid diet loading test, plasma GIP, glucose and insulin; conditions: oral 3 mg/kg each drug 15 min before liquid diet loading; for increase in the plasma glucose concentration (AUC): AUC 0-60 min, FIG. 3; for increase in the GIP concentration in plasma (AUC, total GIP): AUC 0-120 min, FIG. 2
Procedure: Effects of compound (I) alone, Miglitol alone and concomitant use of compound (I) and Miglitol on GIP, glucose and insulin concentrations in plasma during liquid diet loading test in Crlj: ZUC-Lepr^fa Genotype: fa/fa rats (hereinafter abbreviated as Zucker fatty rats)
An operation to insert a polyurethane catheter was performed on the right jugular vein of a Zucker fatty rat (8 weeks old, male, Charles River Laboratories Japan, Inc.), which is an obesity and insulin-resistant model, and experiments were performed in the following four groups.
as §1, §2, §3, §4
Purified water, the compound (I) and Miglitol were orally administered respectively to the Zucker fatty rats fasted overnight in each group as described in (1) to (4), and after 15 minutes, a liquid diet (trade mark: ENSURE H, Meiji Dairies Corporation, Japan) was administered at a ratio of 10 ml/kg to carry out a diet loading test. Blood was collected from the catheter immediately before loading and after loading of the liquid diet, and centrifuged at 4° C., 3000 rpm for 10 minutes to obtain plasma. The GIP concentration in the obtained plasma was measured by an ELISA (RAT/MOUSE GIP (TOTAL) ELISA KIT, LINCO Research, Inc., US), and the plamsa glucose and insulin concentrations was measured by Glucose C2 (Wako Pure Chemical Industries, Ltd., Japan) and ELISA (Rat Insulin ELISA Kit, Shibayagi, Co., Ltd., Japan), respectively. Based on the measured GIP concentration in plasma, AUC from immediately before the loading of the liquid diet to 120 minutes after the loading was calculated. Based on the measured plasma glucose and insulin concentrations, AUC from immediately before the loading of the liquid diet to 60 minutes after the loading was calculated. […] The result of the GIP concentration in plasma is shown in FIG. 2, the result of the plasma glucose level is shown in FIG. 3 and the result of the plasma insulin concentration is shown in FIG. 4.

Structure (SMILES) | increase of the concentration of the active GLP-1 in the plasma (AUC of change) (ZDF rats) | plasma glucose elevation (AUC) (ZDF rats) | increase in the concentration of GIP in plasma (AUC, total GIP) (Wistar rats) | increase of the concentration of the active GLP-1 in the plasma (AUC of change) (Zucker fatty rats [1]) | increase in the plasma glucose concentration (AUC) (Zucker fatty rats [2]) | increase in the GIP concentration in plasma (AUC, total GIP) (Zucker fatty rats [2])
Cc1cc2ncc(C(=O)NCC(C)(C)NCC(=O)N3CCC[C@H]3C#N)cn2n1 [compound (I), (S)—N-(2-(2-(2-cyanopyrrolidin-1-yl)-2-oxoethylamino)-2-methylpropyl)-2-methylpyrazolo[1,5-a]pyrimidine-6-carboxamide] | increased the concentration significantly | no significant difference | no change | increased the concentration significantly | no significant difference | no change
CN(C)C(=N)N=C(N)N [Metformin] | no significant difference | significantly suppressed | significantly suppressed |  |  | 
OCCN1C[C@H](O)[C@@H](O)[C@H](O)[C@H]1CO [Miglitol] |  |  |  | no significant difference | no significant difference | showed a tendency of suppressing
